Source: patent US11179412B2, “Methods of treating conditions involving elevated inflammatory response” (University of Pittsburgh—Of the Commonwealth System of …, priority 2017, dated 2021)
Entries after “also recorded” stand apart in the source; their conditions may differ.

Assays:
[1] = system: STING activation (IFNβ release) in pPMs; experiment: IFNβ release ELISA, primary peritoneal macrophages (pPMs); format: cell-based, mouse; conditions: 16 hours
Experimental: Mouse pPMs were isolated from C57BL/6J mice as previously described (69). In brief, eight-week-old female or male C57BL/6J mice were injected with 3.0% thioglycollate medium (2 mL/mouse) into the peritoneum. Three days after injection, mice were sacrificed and injected with 3 mL of 0.05% EDTA-PBS into the peritoneum to harvest peritoneal macrophages. Collected cells were centrifuged at 1000 rpm for 5 min at 4° C., and the cell pellet was washed with PBS and centrifuged again. The cell pellet was then suspended in Dulbecco's Modified Eagle Medium supplemented with 10% FBS and 1× Penicillin-Streptomycin and cultured in a culture dish.
(§1) Macrophages or monocytes were treated with 3′3′-cGAMP (10 μg/ml, Invitrogen) for 16 hours in the absence or presence of one compound (10 μM) from the Target-selective Inhibitory Library (#L3500, Selleck Chemicals). Commercially available enzyme-linked immunosorbent assay (ELISA) kits were used to measure the concentrations of mouse IFNβ (Thermo Fisher Scientific) or human IFNβ (Thermo Fisher Scientific) in culture medium according to the manufacturer's instructions.

[2] = system: STING activation (IFNβ release) in THP1 cells; experiment: IFNβ release ELISA, THP1 cells; format: cell-based, human; conditions: STING ligands 10 μg/ml, inhibitor 10 μM, 16 hours
Experimental: as §1

IFNβ mRNA in pPMs = experiment: IFNβ mRNA Q-PCR, pPMs; format: cell-based, mouse; conditions: STING ligands 10 μg/ml, inhibitor 10 μM, 16 hours
Experimental: Total RNA was extracted using QIAGEN RNeasy Plus Kit according to the manufacturer's instructions. First-strand cDNA was synthesized from 1 μg of RNA using the iScript cDNA Synthesis kit (#1708890, Bio-Rad). Briefly, 20 μl reactions were prepared by combining 4 μl iScript Select reaction mix, 2 μl gene-specific enhancer solution, 1 μl reverse transcriptase, 1 μl gene-specific assay pool (20×, 2 μM), and 12 μl RNA diluted in RNase-free water. Quantitative real-time PCR was carried out using synthesized cDNA, primers, and SsoFast EvaGreen Supermix (#172-5204, Bio-Rad). The expression of target genes was calculated using the ddCt method relative to the expression of a house-keeping gene, β-actin. Data shown are the relative quantity (RQ), with RQ of the control cells set to one.

iBMDMs = experiment: Cell viability assay (CCK-8), iBMDMs; format: cell-based, mouse; conditions: 3′3′-cGAMP 10 μg/ml, ALK inhibitor 10 μM, 16 hours
Experimental: (§2) Cells were seeded into 96-well plates and incubated with the indicated treatments. Subsequently, 100 μl fresh medium was added to cells containing 10 μl Cell Counting Kit-8 (CCK-8) solutions (Dojindo Laboratories) and incubated for 1 h (37° C., 5% CO2). Absorbance at 450 nm was measured using a microplate reader (Tecan).

THP1 cells = experiment: Cell viability assay (CCK-8), THP1; format: cell-based, human; conditions: 3′3′-cGAMP 10 μg/ml, ALK inhibitor 10 μM, 16 hours
Experimental: as §2

[3] = system: STING signaling (TBK1, IRF3, p65, ALK, EGFR, AKT phosphorylation) in RAW264.7 cells; experiment: Western blot of STING pathway protein phosphorylation, RAW264.7; format: cell-based, mouse; conditions: 10 μM
Experimental: For immunoblotting, cells were lysed in Cell Lysis Buffer (#9803, Cell Signaling Technology) with protease inhibitor cocktail (Promega), phosphatase inhibitor cocktail (Sigma), and 1 mM Na3VO4 (70). Cleared lysates were resolved by SDS-PAGE (#3450124, Bio-Rad) and then transferred onto PVDF membranes (#1704273, Bio-Rad). The membranes were blocked with Tris-buffered saline Tween 20 (TBST) containing 5% skim milk for 1 h at room temperature and then incubated with the indicated primary antibodies (1:1000-1:5000) overnight at 4° C. After being washed with TBST, the membranes were incubated with an HRP-linked anti-mouse IgG secondary antibody (#7076, Cell Signaling Technology) or HRP-linked anti-rabbit IgG secondary antibody (#7074, Cell Signaling Technology) for 1 h at room temperature. The membranes were washed three times in TBST and then visualized and analyzed with a ChemiDoc Touch Imaging System (#1708370, Bio-Rad). The intensities of bands were analyzed with Image Lab software.

[4] = system: CLP-induced polymicrobial sepsis in C57BL/6J mice; experiment: CLP model of polymicrobial sepsis; format: in vivo, mouse
Experimental: sepsis was induced in male or female C57BL/6J mice (eight- to 10-weeks old, 22 to 26 g) using a surgical procedure as previously described (68). Briefly, anesthesia was induced with ketamine (80-100 mg/kg/i.p.) and xylazine (10-12.5 mg/kg/i.p.). A small midline abdominal incision was made and the cecum was exteriorized and ligated with 4-0 silk immediately distal to the ileocecal valve without causing intestinal obstruction. The cecum was then punctured twice with a 17-27-gauge needle. The abdomen was closed in two layers and mice were injected subcutaneously with 1 ml Ringer's solution including analgesia (0.05 mg/kg buprenorphine). […]
(§3) Biochemical measurements of tissue enzymes (CK, AMYL, BUN, and ALT) in serum were performed using the IDEXX Catalyst Dx Chemistry Analyzer according to the manufacturer's protocol.
(§4) Tissues were embedded in optimum cutting temperature cryomedium (Sakura Finetek, Zoeterwoude, the Netherlands) and cut into 4 μm sections. The deparaffinized sections were then stained using the standard H&E method. The stained slides were observed using an EVOS FL Auto Cell Imaging System (Invitrogen), five fields per section and three sections per sample.

[5] = system: LPS-induced endotoxemia in C57BL/6J mice; experiment: Endotoxemia model (LPS); format: in vivo, mouse
Experimental: LPS (Escherichia coli […], 10 mg/kg, #L4391, Sigma) was dissolved in PBS. Male or female C57BL/6J mice (eight- to 10-weeks old, 22 to 26 g weight) received a single oral dose of LDK378 (20 mg/kg) or vehicle, then an infusion of LPS (10 mg/kg, intraperitoneally) 60 minutes later. Mice were re-treated with LDK378 or vehicle six, 12, and 24 hours after LPS infusion.
as §3, §4

[6] = LPS 10 mg/kg, LDK378 20 mg/kg, 24 hours

Structure (SMILES): Cc1cc(Nc2ncc(Cl)c(Nc3ccccc3S(=O)(=O)C(C)C)n2)c(OC(C)C)cc1C1CCNCC1 [LDK378, 5-chloro-N^2-(2-isopropoxy-5-methyl-4-(piperidin-4-yl)phenyl)-N^4-[2-(propane-2-sulfonyl)-phenyl]-pyrimidine-2,4-diamine]
- 3′3′-cGAMP-induced IFNβ release ([1]; mouse pPMs, 3′3′-cGAMP 10 μg/ml, compound 10 μM): confirmed their inhibitory properties
- IFNβ release induced by STING ligands ([1]; pPMs, STING ligands 10 μg/ml, inhibitor 10 μM): inhibited
- IFNβ release induced by STING ligands [2]: inhibited
- STING ligand-induced IFNβ mRNA expression (IFNβ mRNA in pPMs): attenuation
- cell viability (iBMDMs): did not affect cell viability
- cell viability (THP1 cells): did not affect cell viability
- 3′3′-cGAMP-induced p-TBK1 ([3]; 3′3′-cGAMP 10 μg/ml, three to 16 hours): time-dependently reduced
- STING ligand-induced phosphorylation of TBK1, IRF3, and p65 ([3]; 3′3′-cGAMP or c-di-AMP 10 μg/ml, 16 hours): diminished
- 3′3′-cGAMP-, c-di-AMP-, and DMXAA-induced p-IRF3 and p-p65 ([3]; ligand 10 μg/ml): inhibited
- c-di-AMP- or DMXAA-induced p-TBK1 ([3]; ligand 10 μg/ml, 16 hours): inhibited
- 3′3′-cGAMP- or c-di-AMP-induced phosphorylation of ALK, EGFR, and AKT ([3]; ligand 10 μg/ml, 16 hours): attenuated
- CLP-induced lethality (animal death) ([4]; B6 mice, CLP 22-gauge needle, LDK378 20 mg/kg, intraperitoneally (i.p.), 2, 24, 48, and 72 hours after CLP, 20 mg/kg): conferred protection against lethality; also recorded: conferred significant protection; also recorded: prevented
- protection of STING-deficient mice in high-grade sepsis ([4]; CLP 17 G needle, STING-deficient mice): conferred further protection
- organ dysfunction by serum tissue enzymes (CK, AMYL, BUN, ALT) ([4]; CLP 22-gauge needle, LDK378 20 mg/kg, day 2-7): protective effects
- CLP-induced TNFα, IFNβ, MCP1, and IL-7 mRNA expression ([4]; CLP 22-gauge needle, LDK378 20 mg/kg, day 3): reduced
- CLP-induced tissue injury (H&E; lung, small intestine, other tissues) ([4]; CLP 22-gauge needle, LDK378 20 mg/kg, day 3, 20 mg/kg): reduced injury; also recorded: prevented
- top five downregulated circulating immune chemical mediators compared with control group ([4]; CLP 22-gauge needle, serum, day 3): IL-10, serpin E1, serpin F1, TIM-1, and CXCL2
- animal survival in low-, middle-, and high-grade sepsis models ([4]; CLP with 27 G, 22 G, 17 G needles, B6 mice): prolonged animal survival
- CLP-induced cytokine systemic release and accumulation in the serum ([4]; serum antibody array, CLP 22-gauge needle, LDK378 20 mg/kg, day 3): reduced
- endotoxemic lethality (LPS-induced animal death) ([5]; LPS 10 mg/kg i.p., LDK378 20 mg/kg): promoted similar protection; also recorded: conferred significant protection; also recorded: prevented
- organ dysfunction (serum enzyme activity) ([5]; LPS 10 mg/kg, LDK378 20 mg/kg, 12-48 hours): promoted similar protection
- endotoxemia-induced tissue injury (H&E) [5, 6]: promoted similar protection; also recorded: prevented
- proinflammatory cytokine expression (mRNA) [5, 6]: promoted similar protection
- proinflammatory cytokine release (serum antibody array) [5, 6]: promoted similar protection
- top five downregulated circulating immune chemical mediators compared with control group ([5]; LPS 10 mg/kg, serum, 24 hours): EGF, CD14, CXCL1, endoglin, and CCL22
